Assay results as given in patent US4332806A, “Antitumor and immunosuppresive 4-carbamoyl imidazolium-5-olate derivatives, pharmaceutical composition and production thereof” (Sumitomo Chemical Company, Limited, priority 1979, dated 1982).

What was measured:
[1] = system: Lewis lung carcinoma; test: Antitumor effect on experimental tumors in mice, Lewis lung carcinoma (solid), tumor inhibitory ratio; format: in vivo, BDF1 male mice; settings: 100 mg/kg, i.p., schedule 5q2d (day 1, 3, 5, 7 and 9), tumors weighed at day 13
Procedure: The antitumor activities of the compounds of the present invention were estimated according to the methods described in "Cancer chemotherapy reports" Part 3, Vol. 3, (No. 2) p. 13 (1972).
For determining antitumor activities, BDF1 male mice, 5 weeks old, weighing between 18 and 22 grams were used. Each test group was composed of 6 to 7 mice. Two million cells of Lewis Lung Carcinoma were injected in the hind leg. The drug was administered intraperitoneally at day 1, 3, 5, 7 and 9 (or 5q2d).
After killing the mice at day 13, tumors were removed and weighed. The tumor inhibitory ratio was calculated according to the following formula. [formula]

[2] = Acute toxicities (LD50); settings: mouse, in vivo, ip; ICR male mice, 5 weeks old, intraperitoneal
Procedure: For determining acute toxicities ICR male mice, 5 weeks old, were used. The drug was administered intraperitoneally.

[3] = system: tumors; settings: Japanese Patent Publication (Kokai) No. 53-5162; cited from earlier work
[4] = Japanese Patent Publication (Kokai) No. 53-5162; cited from earlier work

Row | Structure (SMILES) | Inhibition Ratio, Lewis lung carcinoma (solid) [1] [%] | LD50 [2] [mg/kg] | antitumor activity, known (in words) [3] | immunosuppressive activity, known (in words) [4]
1 | NC(=O)c1[nH]cnc1OC(=O)C12CC3CC(CC(F)(C3)C1)C2 [5-carbamoyl-1H-imidazole-4-yl 3'-fluoroadamantane-1'-carboxylate] | 65 | 670 to 1000 |  | 
2 | NC(=O)c1[nH]cnc1OC(=O)C12CC3CC(CC(C3)C1)C2 [Compound (IV), 5-Carbamoyl-1H-imidazole-4-yl adamantane-1'-carboxylate] |  | 250 to 297 | antitumor and immunosuppressive activity | immunosuppressive activity
3 | NC(=O)c1[nH]cnc1OC(=O)C12CC3CC(C1)CC(c1ccccc1)(C3)C2 [5-carbamoyl-1H-imidazole-4-yl 3'-phenyladamantane-1'-carboxylate] | 85.7 |  |  | 
4 | NC(=O)c1[nH]cnc1OC(=O)C12CC3CC(CC(Br)(C3)C1)C2 [5-carbamoyl-1H-imidazole-4-yl 3'-bromoadamantane-1'-carboxylate] | 66.2 | 670 to 1000 |  | 
5 | NC(=O)c1[nH]cnc1OC(=O)C12CC3CC(CC(Cl)(C3)C1)C2 [5-carbamoyl-1H-imidazole-4-yl 3'-chloroadamantane-1'-carboxylate] | 71.1 | > 1000 |  | 
6 | CC12CC3(C)CC(C)(C1)CC(C(=O)Oc1nc[nH]c1C(N)=O)(C2)C3 [5-carbamoyl-1H-imidazole-4-yl 3',5',7'-trimethyladamantane-1'-carboxylate] | 90 | 670 to 1000 |  | 
